These results are taken from article PMC4976367, “Dimethyl fumarate blocks pro-inflammatory cytokine production via inhibition of TLR induced M1 and K63 ubiquitin chain formation” (Scientific Reports, 2016).

Where a name gives a salt, the structure may show the parent alone.

Type in all cases: biochemical
Experiment [1] deals with T1, Ube2R1 (Homo sapiens, UniProt P49427).
T1 construct: gene CDC34
T1 sequence (P49427 1-236): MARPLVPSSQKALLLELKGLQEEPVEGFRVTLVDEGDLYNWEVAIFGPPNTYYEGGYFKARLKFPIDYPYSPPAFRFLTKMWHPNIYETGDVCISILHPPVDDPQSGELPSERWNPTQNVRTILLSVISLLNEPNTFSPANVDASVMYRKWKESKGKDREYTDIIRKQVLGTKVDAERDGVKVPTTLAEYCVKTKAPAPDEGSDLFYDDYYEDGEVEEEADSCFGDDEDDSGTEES
In words: E2 ubiquitin loading assay, panel of […] E2s at two fixed DMF concentrations.

For experiment [2], the target named is T2, Ube2T (Homo sapiens, UniProt Q9NPD8).
T2 sequence (Q9NPD8 1-197): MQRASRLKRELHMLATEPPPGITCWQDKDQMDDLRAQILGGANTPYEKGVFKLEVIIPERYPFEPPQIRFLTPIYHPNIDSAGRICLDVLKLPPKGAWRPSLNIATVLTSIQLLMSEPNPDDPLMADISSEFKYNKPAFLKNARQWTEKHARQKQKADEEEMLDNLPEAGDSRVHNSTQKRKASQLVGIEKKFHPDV
The experiment is described as above.

In experiment [3] the target is Ube2W (Homo sapiens, UniProt Q96B02). The description is as above.
Sequence of Ube2W (Q96B02 whole entry, one chain of several): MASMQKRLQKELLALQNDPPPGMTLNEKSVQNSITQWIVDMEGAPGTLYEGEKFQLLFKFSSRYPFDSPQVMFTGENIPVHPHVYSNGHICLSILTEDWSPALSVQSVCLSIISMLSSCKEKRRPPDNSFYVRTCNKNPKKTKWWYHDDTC
The target in experiment [4] is T3, Ubc13 (Homo sapiens, UniProt P61088).
T3 construct: gene UBE2N; recombinant Ubc13
T3 sequence (P61088 1-152): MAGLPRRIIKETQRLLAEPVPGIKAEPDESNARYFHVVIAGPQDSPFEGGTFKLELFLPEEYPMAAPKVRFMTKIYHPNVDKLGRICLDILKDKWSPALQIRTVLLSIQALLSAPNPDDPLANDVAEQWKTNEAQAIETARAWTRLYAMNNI
In words: MALDI-TOF intact mass shift (covalent adduct, +[…] Da); IC50 from E2 ubiquitin loading assay with purified UBE1 and E2.

Experiment [5] has as its target T4, Ube2S (Homo sapiens, UniProt Q16763).
T4 sequence (Q16763 1-222): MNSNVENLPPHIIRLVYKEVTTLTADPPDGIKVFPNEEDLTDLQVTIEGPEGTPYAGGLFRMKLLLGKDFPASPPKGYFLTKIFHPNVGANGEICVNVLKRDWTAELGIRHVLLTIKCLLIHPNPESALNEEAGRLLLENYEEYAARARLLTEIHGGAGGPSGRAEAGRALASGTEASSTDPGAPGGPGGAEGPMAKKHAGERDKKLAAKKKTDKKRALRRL
T4 sequence (P22314 2-1058 partner): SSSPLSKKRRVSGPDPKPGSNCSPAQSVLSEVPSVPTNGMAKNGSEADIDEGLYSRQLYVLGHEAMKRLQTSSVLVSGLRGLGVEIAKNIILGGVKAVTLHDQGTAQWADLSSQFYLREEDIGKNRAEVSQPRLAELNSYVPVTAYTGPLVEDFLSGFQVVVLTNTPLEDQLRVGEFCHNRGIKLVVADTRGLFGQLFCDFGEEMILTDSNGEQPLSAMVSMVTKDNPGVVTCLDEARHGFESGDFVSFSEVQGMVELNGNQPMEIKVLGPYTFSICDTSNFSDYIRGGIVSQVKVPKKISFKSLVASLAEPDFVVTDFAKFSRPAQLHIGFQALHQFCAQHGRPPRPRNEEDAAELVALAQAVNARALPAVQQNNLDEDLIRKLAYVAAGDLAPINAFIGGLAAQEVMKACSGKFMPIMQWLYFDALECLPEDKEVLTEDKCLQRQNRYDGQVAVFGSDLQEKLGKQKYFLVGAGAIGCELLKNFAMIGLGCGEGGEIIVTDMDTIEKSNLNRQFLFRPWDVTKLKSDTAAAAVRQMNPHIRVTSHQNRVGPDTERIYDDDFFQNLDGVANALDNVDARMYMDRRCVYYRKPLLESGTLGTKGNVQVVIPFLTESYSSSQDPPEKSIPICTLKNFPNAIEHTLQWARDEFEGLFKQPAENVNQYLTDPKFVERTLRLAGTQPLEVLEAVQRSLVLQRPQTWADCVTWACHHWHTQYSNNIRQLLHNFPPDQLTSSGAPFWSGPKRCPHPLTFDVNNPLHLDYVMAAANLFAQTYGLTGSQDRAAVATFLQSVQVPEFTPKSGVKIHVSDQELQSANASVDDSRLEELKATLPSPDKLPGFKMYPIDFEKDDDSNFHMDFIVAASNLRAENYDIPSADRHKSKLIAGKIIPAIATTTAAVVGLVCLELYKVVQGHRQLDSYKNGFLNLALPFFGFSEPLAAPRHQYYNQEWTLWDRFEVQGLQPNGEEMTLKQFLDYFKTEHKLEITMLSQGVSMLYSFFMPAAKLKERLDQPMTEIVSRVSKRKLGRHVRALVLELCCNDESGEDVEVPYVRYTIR
In words: E2 ubiquitin loading assay, panel of […] E2s at two fixed DMF concentrations.

Experiment [6] has as its target T5, UbcH7 (Homo sapiens, UniProt P68036).
T5 construct: gene UBE2L3; recombinant UbcH7
In words: MALDI-TOF intact mass shift (covalent adducts, +[…] and +[…] Da); IC50 from E2 ubiquitin loading assay with purified UBE1 and E2.

T5 sequence (P68036 whole entry, one chain of several): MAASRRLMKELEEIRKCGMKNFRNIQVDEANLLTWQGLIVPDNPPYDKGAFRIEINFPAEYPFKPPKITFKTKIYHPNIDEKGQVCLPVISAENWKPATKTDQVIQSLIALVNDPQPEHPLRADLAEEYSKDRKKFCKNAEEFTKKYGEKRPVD

For orientation: IC50 means the point on the concentration scale where inhibition reaches its midpoint. In the case of `COC(=O)/C=C/C(=O)OC` [Dimethyl fumarate], the “E2 ubiquitin loading assay, panel of 24 E2s at two fixed DMF concentrations” value was “UbcH7, Ube2W, Ube2T, Ube2S and Ube2R1 being most strongly inhibited” in experiment [1]; “UbcH7, Ube2W, Ube2T, Ube2S and Ube2R1 being most strongly inhibited” in experiment [2]; “UbcH7, Ube2W, Ube2T, Ube2S and Ube2R1 being most strongly inhibited” in experiment [3]; “UbcH7, Ube2W, Ube2T, Ube2S and Ube2R1 being most strongly inhibited” in experiment [5]. The IC50 in experiment [4] is 10 to 20 µM; in experiment [6], under 10 µM.
